The values below come from patent US12509444B2, “Compounds and methods for CD73 modulation and indications therefor” (Plexxikon Inc., priority 2019, dated 2025).

Assay [1] has as its target T1, Human CD73 (amino acid residues 27-549) (Homo sapiens, UniProt P21589).
T1 construct: Human CD73 (amino acid residues 27-549); His tag (N); made in house; host or cells: E. coli
T1 sequence (P21589 27-549): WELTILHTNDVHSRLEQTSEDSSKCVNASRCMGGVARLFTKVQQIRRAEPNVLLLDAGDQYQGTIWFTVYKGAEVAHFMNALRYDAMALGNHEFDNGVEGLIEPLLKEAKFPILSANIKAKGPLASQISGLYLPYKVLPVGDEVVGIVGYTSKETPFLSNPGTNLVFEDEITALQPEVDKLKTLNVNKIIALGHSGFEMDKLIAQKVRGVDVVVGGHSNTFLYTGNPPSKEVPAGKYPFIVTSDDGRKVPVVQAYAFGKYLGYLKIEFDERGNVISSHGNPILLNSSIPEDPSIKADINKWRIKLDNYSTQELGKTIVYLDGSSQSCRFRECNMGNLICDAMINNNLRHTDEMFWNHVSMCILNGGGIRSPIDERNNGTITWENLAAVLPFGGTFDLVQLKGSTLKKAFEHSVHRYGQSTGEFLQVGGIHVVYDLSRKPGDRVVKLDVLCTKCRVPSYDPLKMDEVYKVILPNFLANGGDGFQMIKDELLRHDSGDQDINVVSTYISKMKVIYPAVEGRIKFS
Description: CD73 enzymatic assay (luciferase-based indirect assay, CellTiter-Glo). Type of assay: biochemical. To be noted: 0.4 nM CD73, 150 μM AMP, 1 hour at room temperature. In outline:
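His-tagged human CD73 (27-549) from E. coli, 0.4 nM, with 150 μM AMP in 50 mM HEPES pH 7.4, 0.01% Tween 20; 1 h at room temperature. AMP remaining read by CellTiter-Glo 2.0 luminescence with 1 μM final ATP after 30 min. IC50 from nonlinear regression of % inhibition.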

A further assay concerns the target T2, human CD73 (Homo sapiens, UniProt P21589).
T2 construct: expressed in transfected cells
T2 sequence (P21589 27-549): T1 sequence (P21589 27-549)
Description: Inhibitor activity against CD73 in cell based assay (CD73 expressing CHO-K1 cells). As to conditions: CHO-K1 cells expressing human CD73, 150 μM AMP, 4 hours of incubation; read-out: CHO-K1 CELL VARIANT: CD73 IC50. The procedure: Determine Inhibitor Activity Against CD73 in Cell Based Assay
CD73 expressing CHO-K1 cell clones were generated upon stable transfection of a plasmid expressing human CD73 under the control of CMV promoter. Cells were selected in Ham's F-12K (Kaighn's) media supplemented with 10% fetal bovine serum and 1 mg/ml G418 at 37° C. in a humidified incubator supplied with 5% CO2. The assays were performed as follows. Cells were seeded in a 96 well plate in 50 μL of culture media at a density of 1×10^4 per well. Compound at a maximal concentration of 5 mM was serially diluted 1:3 in DMSO for a total of 8 point titration. A 2 μL aliquot of each dilution point was added to 248 μL culture media and 25 µL was added to each well, providing 10 μM compound at the maximum concentration point. AMP was diluted in culture media and 25 μL was added to each well with a final concentration of 150 μM. 4 wells containing 0.2% DMSO treated cells and AMP served as high controls and 4 wells containing media only with 0.2% DMSO and AMP served as low controls. After 4 hours of incubation, 20 μL of the supernatant was transferred to a 384 well plate. AMP level in supernatant was measured indirectly by adding 5 μL of CellTiter-Glo® 2.0 reagent and 5 μL of ATP with a final concentration of 1 μM. Following incubation of plate at room temperature for 30 minutes, luminescent signal was read on a Tecan plate reader. The percentage inhibition at individual concentrations relative to high and low controls was calculated. The data were analyzed by using nonlinear regression to generate IC50 values.

Structures are written as SMILES.

`CN(C(=O)OC1CCCCC1)C1CCN(c2cn[nH]c(=O)c2Cl)C1` (centres unmarked) [P-0068, cyclohexyl (1-(5-chloro-6-oxo-1,6-dihydropyridazin-4-yl)pyrrolidin-3-yl)(methyl)carbamate]: the IC50 in assay [1] was in the range of 0.001 to 10 µM; on human CD73, 10 to 100 µM.

Turning to `N#CC1(NC(=O)OC2CCCCC2)CCN(c2cn[nH]c(=O)c2Cl)C1` (centres unmarked) [P-0074, cyclohexyl (1-(5-chloro-6-oxo-1,6-dihydropyridazin-4-yl)-3-cyanopyrrolidin-3-yl)carbamate], the 50% inhibitory concentration (IC50) lay in the range of 0.001 to 10 µM in assay [1] and 10 to 100 µM at human CD73.

As to `CS(=O)(=O)N1CCC(NC(=O)N[C@@H]2CCN(c3cn[nH]c(=O)c3Cl)C2)CC1` [P-0076, (R)-1-(1-(5-chloro-6-oxo-1,6-dihydropyridazin-4-yl)pyrrolidin-3-yl)-3-(1-(methylsulfonyl)piperidin-4-yl)urea], the IC50 in assay [1] was in the range of 0.001 to 10 µM; on human CD73, 10 to 100 µM.

`O=C(NC1CCCCC1)OC1CCN(c2cn[nH]c(=O)c2Cl)C1` (centres unmarked) [P-0077, 1-(5-chloro-6-oxo-1,6-dihydropyridazin-4-yl)pyrrolidin-3-yl cyclohexylcarbamate]: the 50% inhibitory concentration (IC50) (in assay [1]; on human CD73) was 0.001 to 10 µM throughout.

Consider `O=C(NC1CCC1)N[C@@H]1CCN(c2cn[nH]c(=O)c2Cl)C1` [P-0085, (R)-1-(1-(5-chloro-6-oxo-1,6-dihydropyridazin-4-yl)pyrrolidin-3-yl)-3-cyclobutylurea], for which the results for the IC50 (in assay [1]; at human CD73) were 0.001 to 10 µM and 10 to 100 µM, respectively.

On to `O=C(NC1CCS(=O)(=O)CC1)N[C@@H]1CCN(c2cn[nH]c(=O)c2Cl)C1` [P-0086, (R)-1-(1-(5-chloro-6-oxo-1,6-dihydropyridazin-4-yl)pyrrolidin-3-yl)-3-(1,1-dioxidotetrahydro-2H-thiopyran-4-yl)urea], for which the IC50 in assay [1] lay within 0.001 to 10 µM; on human CD73, 10 to 100 µM.

Take `O=C(CO)NC1CCC(NC(=O)N[C@@H]2CCN(c3cn[nH]c(=O)c3Cl)C2)CC1` (stereo partly drawn) [P-0088, (R)-N-(4-(3-(1-(5-chloro-6-oxo-1,6-dihydropyridazin-4-yl)pyrrolidin-3-yl)ureido)cyclohexyl)-2-hydroxyacetamide]: the IC50 in assay [1] lay in the range of 0.001 to 10 µM; at human CD73, 10 to 100 µM.

As for `CC(C)(C)OC(=O)N1CCC(NC(=O)O[C@@H]2CCN(c3cn[nH]c(=O)c3Cl)C2)CC1` [P-0089, tert-butyl (R)-4-((((1-(5-chloro-6-oxo-1,6-dihydropyridazin-4-yl)pyrrolidin-3-yl)oxy)carbonyl)amino) piperidine-1-carboxylate], the IC50 (in assay [1]; on human CD73) was 0.001 to 10 µM each time.

On to `CC(=O)N1CCC(NC(=O)O[C@@H]2CCN(c3cn[nH]c(=O)c3Cl)C2)CC1` [P-0090, (R)-1-(5-chloro-6-oxo-1,6-dihydropyridazin-4-yl)pyrrolidin-3-yl (1-acetylpiperidin-4-yl)carbamate], for which the IC50 (in assay [1]; at human CD73) was 0.001 to 10 µM in each case.

Regarding `CS(=O)(=O)NC1CCC(NC(=O)N[C@@H]2CCN(c3cn[nH]c(=O)c3Cl)C2)CC1` (stereo partly drawn) [P-0091, (R)-N-(4-(3-(1-(5-chloro-6-oxo-1,6-dihydropyridazin-4-yl)pyrrolidin-3-yl)ureido)cyclohexyl) methanesulfonamide], the 50% inhibitory concentration (IC50) (in assay [1]; on human CD73) was 0.001 to 10 µM throughout.

Take `O=C(NC1CC1)O[C@@H]1CCN(c2cn[nH]c(=O)c2Cl)C1` [P-0092, (R)-1-(5-chloro-6-oxo-1,6-dihydropyridazin-4-yl)pyrrolidin-3-yl cyclopropylcarbamate]: the IC50 (in assay [1]; at human CD73) was 0.001 to 10 µM throughout.

For the molecule `O=C(Nc1ccccc1)O[C@@H]1CCN(c2cn[nH]c(=O)c2Cl)C1` [P-0093, (R)-1-(5-chloro-6-oxo-1,6-dihydropyridazin-4-yl)pyrrolidin-3-yl phenylcarbamate], the 50% inhibitory concentration (IC50) (in assay [1]; on human CD73) was 0.001 to 10 µM in each case.

Consider `O=C(Nc1ccc(Cl)cc1)O[C@@H]1CCN(c2cn[nH]c(=O)c2Cl)C1` [P-0094, (R)-1-(5-chloro-6-oxo-1,6-dihydropyridazin-4-yl)pyrrolidin-3-yl (4-chlorophenyl)carbamate], for which the IC50 in assay [1] fell in the range of 0.001 to 10 µM; on human CD73, 10 to 100 µM.

Regarding `O=C(NCC1CCCC1)O[C@@H]1CCN(c2cn[nH]c(=O)c2Cl)C1` [P-0095, (R)-1-(5-chloro-6-oxo-1,6-dihydropyridazin-4-yl)pyrrolidin-3-yl (cyclopentylmethyl)carbamate], the IC50 (in assay [1]; at human CD73) was 0.001 to 10 µM each time.

On to `O=C(NCC(F)(F)F)O[C@@H]1CCN(c2cn[nH]c(=O)c2Cl)C1` [P-0096, (R)-1-(5-chloro-6-oxo-1,6-dihydropyridazin-4-yl)pyrrolidin-3-yl (2,2,2-trifluoroethyl)carbamate], for which the IC50 (in assay [1]; on human CD73) was 0.001 to 10 µM each time.

On to `O=C(NC1CCOCC1)O[C@@H]1CCN(c2cn[nH]c(=O)c2Cl)C1` [P-0097, (R)-1-(5-chloro-6-oxo-1,6-dihydropyridazin-4-yl)pyrrolidin-3-yl (tetrahydro-2H-pyran-4-yl)carbamate], for which the IC50 (in assay [1]; at human CD73) was 0.001 to 10 µM throughout.

Consider `CN(C(=O)O[C@@H]1CCN(c2cn[nH]c(=O)c2Cl)C1)C1CCCCC1` [P-0099, (R)-1-(5-chloro-6-oxo-1,6-dihydropyridazin-4-yl)pyrrolidin-3-yl cyclohexyl(methyl)carbamate], for which the IC50 in assay [1] was in the range of 0.001 to 10 µM; at human CD73, 10 to 100 µM.

On to `O=C(NCc1ccccc1)O[C@@H]1CCN(c2cn[nH]c(=O)c2Cl)C1` [P-0100, (R)-1-(5-chloro-6-oxo-1,6-dihydropyridazin-4-yl)pyrrolidin-3-yl benzylcarbamate], for which the IC50 in assay [1] fell in the range of 0.001 to 10 µM; at human CD73, 10 to 100 µM.

Consider `O=C(Nc1cccc(Cl)c1)O[C@@H]1CCN(c2cn[nH]c(=O)c2Cl)C1` [P-0101, (R)-1-(5-chloro-6-oxo-1,6-dihydropyridazin-4-yl)pyrrolidin-3-yl (3-chlorophenyl)carbamate], for which the IC50 (in assay [1]; on human CD73) was 0.001 to 10 µM in each case.

On to `CCOC(=O)N1CCC(NC(=O)O[C@@H]2CCN(c3cn[nH]c(=O)c3Cl)C2)CC1` [P-0102, ethyl (R)-4-((((1-(5-chloro-6-oxo-1,6-dihydropyridazin-4-yl)pyrrolidin-3-yl)oxy)carbonyl)amino) piperidine-1-carboxylate], for which the IC50 (in assay [1]; on human CD73) was 0.001 to 10 µM each time.

As for `O=C(N[C@@H]1CCN(c2cn[nH]c(=O)c2Cl)C1)N[C@@H]1CCN(c2cn[nH]c(=O)c2Cl)C1` [P-0103, 1,3-bis((R)-1-(5-chloro-6-oxo-1,6-dihydropyridazin-4-yl)pyrrolidin-3-yl)urea], the IC50 fell in the range of 0.001 to 10 µM in assay [1] and 10 to 100 µM on human CD73.

As to `O=C(NC1CC(F)(F)C1)O[C@@H]1CCN(c2cn[nH]c(=O)c2Cl)C1` [P-0104, (R)-1-(5-chloro-6-oxo-1,6-dihydropyridazin-4-yl)pyrrolidin-3-yl (3,3-difluorocyclobutyl)carbamate], the IC50 (in assay [1]; on human CD73) was 0.001 to 10 µM in each case.

`O=C(NC1CCN(C(=O)CO)CC1)O[C@@H]1CCN(c2cn[nH]c(=O)c2Cl)C1` [P-0105, (R)-1-(5-chloro-6-oxo-1,6-dihydropyridazin-4-yl)pyrrolidin-3-yl (1-(2-hydroxyacetyl)piperidin-4-yl)carbamate]: the IC50 (in assay [1]; at human CD73) was 0.001 to 10 µM in each case.

Take `O=C(NC1CCC(F)(F)CC1)O[C@@H]1CCN(c2cn[nH]c(=O)c2Cl)C1` [P-0106, (R)-1-(5-chloro-6-oxo-1,6-dihydropyridazin-4-yl)pyrrolidin-3-yl (4,4-difluorocyclohexyl)carbamate]: the IC50 (in assay [1]; at human CD73) was 0.001 to 10 µM throughout.

As to `O=C(N[C@H]1CCOC1)O[C@@H]1CCN(c2cn[nH]c(=O)c2Cl)C1` [P-0107, (R)-1-(5-chloro-6-oxo-1,6-dihydropyridazin-4-yl)pyrrolidin-3-yl ((S)-tetrahydrofuran-3-yl)carbamate], the IC50 (in assay [1]; on human CD73) was 0.001 to 10 µM each time.

As usually defined, the IC50 is the concentration that gives 50% inhibition.
